From article PMC9869995, “Discovery of benzochromene derivatives first example with dual cytotoxic activity against the resistant cancer cell MCF-7/ADR and inhibitory effect of the P-glycoprotein expression levels” (Journal of Enzyme Inhibition and Medicinal Chemistry, 2023)
Values belong to the compound of their own block, whether it stands above or below them.

How the values were obtained:
MCF-7 = assay: MTT cell viability assay, MCF-7; assay type: cell-based; conditions: Homo sapiens, MCF7, 24 h incubation, mean ± standard error
Excerpt: (§1) According to previous reports regarding the cytotoxic features of a numerous array of benzochromene scaffolds, compounds 4a − z have been elected to explore their cytotoxic ability against three tumour cell lines, including HCT-116 (colon cancer), MCF-7 (breast cancer), and HepG-2 (hepatocellular cancer), and employing the 3–(4,5-dimethylthiazol-2-yl)-2,5-diphenyl tetrazolium bromide (MTT) colorimetric assay as described in literature. Judges choice of such cell lines has been stimulated by the acknowledged antitumor performance of a substantial number of 1H-benzo[f]chromene and 4H-benzo[h]chromene molecules towards the asserted cell lines. […] Moreover, benzochromene derivatives with highly cytotoxic behaviour, 4a − d, 4g, 4i, 4k, 4n, 4q, 4 u, and 4w, are subjected to further inspection against ADR-resistant human breast cancer cells (MCF-7/ADR) and the two normal cell lines, HFL-1 and human diploid fibroblasts (WI-38). […] Also, the results are illustrated in Table 4.
(§2) The tumour cell lines MCF-7, HepG-2, and […] were obtained from the American Type Culture Collection (ATCC, Rockville, MD). The cells were grown on RPMI-1640 medium supplemented with 10% inactivated foetal calf serum and 50 µg/mL gentamycin. The cells were maintained at 37 °C in a humidified atmosphere with 5% CO2 and were subculture two to three times a week.
(§3) The cytotoxic activity was appraised, using the 3–(4,5-dimethylthiazol-2-yl)-2,5-diphenyl-tetrazolium bromide (MTT) colorimetric assay, as reported previously[57] and ELISA assay for MCF-7/ADR[75].

HCT-116 = assay: MTT cell viability assay, HCT-116; assay type: cell-based; conditions: Homo sapiens, 24 h incubation, mean ± standard error
Excerpt: as §1, §3

HepG-2 = assay: MTT cell viability assay, HepG-2; assay type: cell-based; conditions: Homo sapiens, HepG2, 24 h incubation, mean ± standard error
Excerpt: as §1, §2, §3

MCF-7/ADR = assay: Cytotoxicity against ADR-resistant breast cancer cells; assay type: cell-based, human; conditions: 24 h exposure, mean ± standard error
Excerpt: as §1, §3

HFL-1 = assay: Cytotoxicity against normal cell line HFL-1; assay type: cell-based; conditions: Homo sapiens, HFL1, 24 h, mean ± standard error
Excerpt: as §1, §3

WI-38 = assay: Cytotoxicity against normal cell line WI-38; assay type: cell-based; conditions: Homo sapiens, 24 h, mean ± standard error
Excerpt: as §1, §3

P-gp [1] = assay: P-gp content in MCF-7/ADR cell lysate by ELISA; assay type: cell-based, human; conditions: MCF-7/ADR lysate; for %Reduction of P-gp expression / IC50: 48 h; for IC50 at 48 h: human, MCF-7/ADR cells (cell lysate)
Experimental: P-gp pumps multiple types of drugs out of the cell, using energy generated from adenosine triphosphate (ATP), and confers MDR on cancer cells. It is one of the noteworthy problems in malignant tumour clinical therapeutics. […].
The content of P-gp in the MCF-7/ADR cell lysates after incubation with varying conc. (12.5–100 µM) of tested compounds 4b, 4c, 4d, 4q, and 4w following exposure for 48 h. was determined using commercial human P-gp ELISA Kit (MBS2506188, MyBioSource Inc., San Diego, CA). Absorption was recorded at 450 nm with a Spectramax Gemini fluorescence microplate reader (Molecular Devices, Sunnyvale, CA).

P-gp [2] = biological target: T1, P-gp (Homo sapiens, UniProt P08183); assay: Rhodamine 123 accumulation assay in MCF-7/ADR cells; assay type: cell-based; conditions: 4 h compound, then 5.25 μM Rho123 30 min
T1 construct: endogenous in cells; host or cells: MCF-7/ADR (Adriamycin-resistant human breast cancer cells)
Experimental: Furthermore, the reversion of P-gp mediated multidrug resistance may be achieved by down-regulation of P-gp expression and or inhibition of P-gp efflux function.
Briefly, resistant cancer cells were harvested, washed twice, and counted. […] of each well was measured using Spectramax Gemini fluorescence microplate reader (Molecular Devices, Sunnyvale, CA). The total content of Rhodamine in each sample was determined by comparison with a Rhodamine standard curve.

MCF-7/ADR cells = assay: Annexin V-FITC/PI apoptosis assay; assay type: cell-based, human; conditions: IC50 value, 24 h, untreated cells 2%
Excerpt: Several lines of evidence indicate that many anticancer compounds exerted their effects by blocking the cell cycle progression, by inducing apoptosis, or the combined effect of both[67]. Also, P-gp inhibits apoptosis by preventing the release of cytochrome c which is mediated by the intrinsic mitochondrial pathway. To further assess the pivotal relation of the newly synthesised MCF-7/ADR anticancer compounds and apoptosis, phosphatidylserine (PS) translocation to the cell membrane as a marker for apoptosis was measured by the means of the Annexin V/PI double staining flow cytometric assay.
Apoptosis assay was performed with an Annexin V-FITC/PI double staining apoptosis detection kit (K101, Biovison, Milpitas, CA) using a flow cytometer. MCF-7/ADR cancer cells treated with different newly synthesised compounds (IC50 value) were harvested by trypsinization, washed twice with 4 °C PBS, and re-suspended in binding buffer. Annexin V-FITC and PI solutions were then added to stain the cells before analysis by flow cytometry A minimum of 10,000 cells per sample were acquired. Annexin V-FITC binding (FL1) and PI (FL2) were analysed using Cell Quest Pro software (BD Biosciences).

[3] = Homo sapiens, NCI/ADR-RES, 24 h

T1 sequence (P08183 whole entry): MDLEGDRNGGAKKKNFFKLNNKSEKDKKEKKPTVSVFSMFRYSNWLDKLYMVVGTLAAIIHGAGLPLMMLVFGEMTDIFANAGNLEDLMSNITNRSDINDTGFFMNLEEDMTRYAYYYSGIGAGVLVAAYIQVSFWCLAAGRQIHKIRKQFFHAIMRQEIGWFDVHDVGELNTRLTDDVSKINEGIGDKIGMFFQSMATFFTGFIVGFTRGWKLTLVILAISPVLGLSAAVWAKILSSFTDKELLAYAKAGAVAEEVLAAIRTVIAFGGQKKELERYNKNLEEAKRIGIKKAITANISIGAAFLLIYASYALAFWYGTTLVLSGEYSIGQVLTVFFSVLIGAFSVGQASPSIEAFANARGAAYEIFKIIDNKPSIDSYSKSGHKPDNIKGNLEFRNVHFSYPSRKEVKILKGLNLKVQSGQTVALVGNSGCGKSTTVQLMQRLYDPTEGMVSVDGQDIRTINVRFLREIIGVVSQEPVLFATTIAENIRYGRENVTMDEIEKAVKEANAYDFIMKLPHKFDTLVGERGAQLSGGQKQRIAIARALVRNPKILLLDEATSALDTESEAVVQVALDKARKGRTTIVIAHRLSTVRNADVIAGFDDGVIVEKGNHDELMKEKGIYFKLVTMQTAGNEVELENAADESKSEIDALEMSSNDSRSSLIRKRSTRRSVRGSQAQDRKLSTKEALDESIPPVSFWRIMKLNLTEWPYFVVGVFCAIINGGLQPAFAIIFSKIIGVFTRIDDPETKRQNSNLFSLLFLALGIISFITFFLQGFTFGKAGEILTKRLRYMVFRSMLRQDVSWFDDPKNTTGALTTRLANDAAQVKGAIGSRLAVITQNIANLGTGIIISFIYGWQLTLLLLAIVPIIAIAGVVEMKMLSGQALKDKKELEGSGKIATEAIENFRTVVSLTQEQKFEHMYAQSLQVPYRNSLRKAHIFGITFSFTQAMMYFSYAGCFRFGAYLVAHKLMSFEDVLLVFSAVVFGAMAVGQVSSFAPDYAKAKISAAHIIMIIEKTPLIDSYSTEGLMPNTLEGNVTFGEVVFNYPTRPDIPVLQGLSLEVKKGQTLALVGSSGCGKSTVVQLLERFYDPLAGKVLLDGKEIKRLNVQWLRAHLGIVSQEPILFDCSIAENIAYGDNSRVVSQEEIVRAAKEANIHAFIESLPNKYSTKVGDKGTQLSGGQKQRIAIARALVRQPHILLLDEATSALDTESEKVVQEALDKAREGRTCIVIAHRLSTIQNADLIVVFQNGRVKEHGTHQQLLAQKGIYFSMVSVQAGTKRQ

Compound: COc1ccc2ccc3c(c2c1)C(c1ccccc1Cl)C(C#N)=C(N)O3 (centres unmarked) [4b, 3-Amino-1–(2-chlorophenyl)-9-methoxy-1H-benzo[f]chromene-2-carbonitrile]
IC50 (MCF-7): 11.3 ± 0.1 µM
IC50 (HCT-116): 2.5 ± 0.2 µM
IC50 (HepG-2): 10.7 ± 0.5 µM
IC50 (MCF-7/ADR): 13.3 ± 0.5 µM
IC50 (MCF-7/ADR; [3]): 10.9 to 15.5 µM
IC50 (HFL-1): 71.9 ± 0.1 µM
IC50 (WI-38): 66.7 ± 0.2 µM
%Reduction of P-gp expression (P-gp [1]; Conc. 12.5 µM): 30%
%Reduction of P-gp expression (P-gp [1]; Conc. 25 µM): 42%
%Reduction of P-gp expression (P-gp [1]; Conc. 50 µM): 72%
%Reduction of P-gp expression (P-gp [1]; Conc. 100 µM): 90%
IC50 (P-gp [1]): 26.7 µM
IC50 at 48 h (P-gp [1]): 18.7 to 34.6 µM
IC50 (P-gp [2]): 20.5 µM
melting point: 266 to 267 °C

Compound: COc1ccc2ccc3c(c2c1)C(c1cccc(Cl)c1)C(C#N)=C(N)O3 (centres unmarked) [4c, 3-Amino-1–(3-chlorophenyl)-9-methoxy-1H-benzo[f]chromene-2-carbonitrile]
IC50 (MCF-7): 8.5 ± 0.6 µM
IC50 (HCT-116): 9.9 ± 0.1 µM
IC50 (HepG-2): 11 ± 0.2 µM
IC50 (MCF-7/ADR): 10.9 ± 0.2 µM
IC50 (MCF-7/ADR; [3]): 10.9 to 15.5 µM
IC50 (HFL-1): 59.5 ± 1.1 µM
IC50 (WI-38): 61.5 ± 1.2 µM
%Reduction of P-gp expression (P-gp [1]; Conc. 12.5 µM): 26%
%Reduction of P-gp expression (P-gp [1]; Conc. 25 µM): 40%
%Reduction of P-gp expression (P-gp [1]; Conc. 50 µM): 70%
%Reduction of P-gp expression (P-gp [1]; Conc. 100 µM): 84%
IC50 (P-gp [1]): 28.4 µM
IC50 at 48 h (P-gp [1]): 18.7 to 34.6 µM
IC50 (P-gp [2]): 23 µM
melting point: 262 to 263 °C

Compound: COc1ccc2ccc3c(c2c1)C(c1ccc(F)cc1F)C(C#N)=C(N)O3 (centres unmarked) [4k, 3-Amino-1–(2,4-difluorophenyl)-9-methoxy-1H-benzo[f]chromene-2-carbonitrile]
IC50 (MCF-7): 3 ± 0.3 µM
IC50 (HCT-116): 4.1 ± 0.2 µM
IC50 (HepG-2): 8.2 ± 0.6 µM
IC50 (MCF-7/ADR): 11.5 ± 0.6 µM
IC50 (MCF-7/ADR; [3]): 10.9 to 15.5 µM
IC50 (HFL-1): 59.6 ± 0.1 µM
IC50 (WI-38): 47.3 ± 0.2 µM
%Reduction of P-gp expression (P-gp [1]; Conc. 12.5 µM): 12%
%Reduction of P-gp expression (P-gp [1]; Conc. 25 µM): 28%
%Reduction of P-gp expression (P-gp [1]; Conc. 50 µM): 45%
%Reduction of P-gp expression (P-gp [1]; Conc. 100 µM): 70%
IC50 at 48 h (P-gp [1]): 61.4 µM
IC50 (P-gp [2]): 57.8 µM
melting point: 255 to 256 °C

The next compounds have a lower IC50 (MCF-7) than those just listed; values first:

IC50 (MCF-7): 2.6 ± 0.5 µM
IC50 (HCT-116): 6.2 ± 0.3 µM
IC50 (P-gp [1]): 32.4 µM
IC50 at 48 h (P-gp [1]): 18.7 to 34.6 µM
IC50 (P-gp [2]): 25.6 µM
melting point: 253 to 255 °C
Compound: COc1ccc2ccc3c(c2c1)C(c1ccc(OC)c(OC)c1)C(C#N)=C(N)O3 (centres unmarked) [4w, 3-Amino-1–(3,4-dimethoxyphenyl)-9-methoxy-1H-benzo[f]chromene-2-carbonitrile]
IC50 (HepG-2): 52.3 ± 0.4 µM
IC50 (MCF-7/ADR): 11.5 ± 0.6 µM
IC50 (MCF-7/ADR; [3]): 10.9 to 15.5 µM
IC50 (HFL-1): 47.1 ± 0.2 µM
IC50 (WI-38): 52.9 ± 0.3 µM
%Reduction of P-gp expression (P-gp [1]; Conc. 12.5 µM): 24%
%Reduction of P-gp expression (P-gp [1]; Conc. 25 µM): 36%
%Reduction of P-gp expression (P-gp [1]; Conc. 50 µM): 68%
%Reduction of P-gp expression (P-gp [1]; Conc. 100 µM): 79%

IC50 (MCF-7): 2.3 ± 0.1 µM
IC50 (HCT-116): 1.3 ± 0.1 µM
IC50 at 48 h (P-gp [1]): 45.3 µM
IC50 (P-gp [2]): 39.1 µM
melting point: 255 to 256 °C
Compound: COc1ccc2ccc3c(c2c1)C(c1ccc(Cl)c(Cl)c1)C(C#N)=C(N)O3 (centres unmarked) [4q, 3-Amino-1–(3,4-dichlorophenyl)-9-methoxy-1H-benzo[f]chromene-2-carbonitrile]
IC50 (HepG-2): 1.5 ± 0.1 µM
IC50 (MCF-7/ADR): 13.4 ± 0.4 µM
IC50 (MCF-7/ADR; [3]): 10.9 to 15.5 µM
IC50 (HFL-1): 75.8 ± 0.2 µM
IC50 (WI-38): 72.8 ± 0.4 µM
%Reduction of P-gp expression (P-gp [1]; Conc. 12.5 µM): 19%
%Reduction of P-gp expression (P-gp [1]; Conc. 25 µM): 32%
%Reduction of P-gp expression (P-gp [1]; Conc. 50 µM): 51%
%Reduction of P-gp expression (P-gp [1]; Conc. 100 µM): 76%

IC50 (MCF-7): 0.8 ± 0.01 µM
IC50 (HCT-116): 0.9 ± 0.02 µM
IC50 at 48 h (P-gp [1]): 50.9 µM
Compound: COc1cccc2c1C(=O)c1c(O)c3c(c(O)c1C2=O)C[C@@](O)(C(=O)CO)C[C@@H]3O[C@H]1C[C@H](N)[C@H](O)[C@H](C)O1 [Doxorubicin, reference compound]
IC50 (HepG-2): 1.7 ± 0.4 µM
total apoptosis (MCF-7/ADR cells): 30%

IC50 (MCF-7): 0.6 ± 0.2 µM
IC50 (HCT-116): 1.9 ± 0.4 µM
IC50 at 48 h (P-gp [1]): 13.5 µM
IC50 (P-gp [2]): 10.6 µM
melting point: 257 to 258 °C
Compound: COc1ccc2ccc3c(c2c1)C(c1ccc(Cl)cc1)C(C#N)=C(N)O3 (centres unmarked) [4d, 3-Amino-1–(4-chlorophenyl)-9-methoxy-1H-benzo[f]chromene-2-carbonitrile]
IC50 (HepG-2): 7.2 ± 0.1 µM
IC50 (MCF-7/ADR): 12.5 ± 0.3 µM
IC50 (MCF-7/ADR; [3]): 10.9 to 15.5 µM
IC50 (HFL-1): 77.1 ± 1.1 µM
IC50 (WI-38): 83 ± 1.1 µM
%Reduction of P-gp expression (P-gp [1]; Conc. 12.5 µM): 45%
%Reduction of P-gp expression (P-gp [1]; Conc. 25 µM): 60%
%Reduction of P-gp expression (P-gp [1]; Conc. 50 µM): 81%
%Reduction of P-gp expression (P-gp [1]; Conc. 100 µM): 91%
